Measurements reported in US20220143198A1, “COMPOSITIONS AND METHODS RELATED TO TETHERED KETHOXAL DERIVATIVES” (The University of Chicago, priority 2019, published 2022).

Tests used:
[1] = tested on: guanosine; assay: Reactivity of kethoxal derivatives with guanosine (conversion rates of guanosine); assay type: biochemical
[2] = tested on: guanosine; assay: Reversibility of kethoxal derivatives by adjusting pH (kethoxal-guanosine adduct dissociation); assay type: physicochemical
[3] = tested on: guanosine; assay: Reversibility of kethoxal derivatives using GTP for competition (LCMS of free guanosine); assay type: physicochemical; conditions: 1:1 ratio
[4] = pH = 7.8, S1:S2 = 2:1 (S1 guanosine, S2 kethoxal derivative)
[5] = pH = 5.8, 4 h after adjusting from pH 10.1, 1:1 ratio
[6] = pH = 5.8, 24 h after adjusting from pH 10.1, 1:1 ratio
[7] = pH = 10.1, 10 min, kethoxal derivative and guanosine 1:1
[8] = pH = 7.0, 10 min, excess GTP added after 10 min
[9] = pH = 7.0, 2 h, excess GTP competitor
[10] = pH = 7.0, 24 h, excess GTP competitor
[11] = pH = 5.8, 10 min after adjusting from pH 10.1, 1:1 ratio

## [N-]=[N+]=NCCOC(F)(F)C(=O)C=O [drawing 44]
[1]; pH = 7.8, S1:S2 = 1:1
  Conversion rate of guanosine: 14.7%
[1]; pH = 7.8, S1:S2 = 1:2
  Conversion rate of guanosine: 28.9%
[1]; pH = 7.8, S1:S2 = 1:3
  Conversion rate of guanosine: 38.7%
[1]; pH = 7.8, S1:S2 = 1:5
  Conversion rate of guanosine: 63.1%
[1]; [4]
  Conversion rate of guanosine: 8.5%

## CC(Br)C(=O)C=O (stereo not drawn) [drawing 67]
[2]; [5]
  Conversion of guanosine: 64.3%
[2]; [6]
  Conversion of guanosine: 62.9%
[2]; [7]
  Conversion of guanosine: 62.7%

## [N-]=[N+]=NCCOCCC(=O)C=O [drawing 41]
[1]; pH = 7.8, S1:S2 = 1:1
  Conversion rate of guanosine: 41.1%
[1]; pH = 7.8, S1:S2 = 1:2
  Conversion rate of guanosine: 60.0%
[1]; pH = 7.8, S1:S2 = 1:3
  Conversion rate of guanosine: 66.4%
[1]; pH = 7.8, S1:S2 = 1:5
  Conversion rate of guanosine: 73.6%
[1]; [4]
  Conversion rate of guanosine: 25.2%

## [N-]=[N+]=NCCCC(=O)C=O [drawing 39]
[1]; pH = 7.8, S1:S2 = 1:1
  Conversion rate of guanosine: 48.0%
[1]; pH = 7.8, S1:S2 = 1:2
  Conversion rate of guanosine: 70.5%
[1]; pH = 7.8, S1:S2 = 1:3
  Conversion rate of guanosine: 88.9%
[1]; pH = 7.8, S1:S2 = 1:5
  Conversion rate of guanosine: 89.2%
[1]; [4]
  Conversion rate of guanosine: 23.8%

## CC(OCCN=[N+]=[N-])C(=O)C=O (stereo not drawn) [drawing 31]
[1]; pH = 7.8, S1:S2 = 1:1
  Conversion rate of guanosine: 86.9%
[1]; pH = 7.8, S1:S2 = 1:2
  Conversion rate of guanosine: 97.4%
[1]; [4]
  Conversion rate of guanosine: 51.6%

## CC(OC(=O)CN=[N+]=[N-])C(=O)C=O (stereo not drawn) [drawing 80]
[3]; [8]
  Conversion of guanosine under competition condition: 54.4%
[3]; [9]
  Conversion of guanosine under competition condition: 44.6%
[3]; [10]
  Conversion of guanosine under competition condition: 37.5%

## [N-]=[N+]=NCCOC(F)(F)C(=O)C=O [drawing 75]
[2]; [11]
  Conversion of guanosine: 49.2%
[2]; [5]
  Conversion of guanosine: 55.1%
[2]; [6]
  Conversion of guanosine: 54.7%
[2]; [7]
  Conversion of guanosine: 41.5%

## [N-]=[N+]=NCCOCCC(=O)C=O [drawing 72]
[2]; [5]
  Conversion of guanosine: 16.6%
[2]; [7]
  Conversion of guanosine: 19.7%

## O=CC(=O)c1ccccc1 [phenyl-substituted kethoxal derivative]
[1]; pH = 7.0, S1:S2 = 1:1
  Conversion rate of guanosine: 18.8%
[1]; pH = 7.0, S1:S2 = 1:2
  Conversion rate of guanosine: 37.6%
[1]; pH = 7.0, S1:S2 = 1:3
  Conversion rate of guanosine: 51.0%
[1]; pH = 7.0, S1:S2 = 1:5
  Conversion rate of guanosine: 67.0%
[1]; pH = 7.8, S1:S2 = 1:1
  Conversion rate of guanosine: 32.2%
[1]; pH = 7.8, S1:S2 = 1:2
  Conversion rate of guanosine: 51.2%
[1]; pH = 7.8, S1:S2 = 1:3
  Conversion rate of guanosine: 66.2%
[1]; pH = 7.8, S1:S2 = 1:5
  Conversion rate of guanosine: 80.1%

## [N-]=[N+]=NCCCC(=O)C=O [drawing 85]
[3]; [8]
  Conversion of guanosine under competition condition: 46.2%
[3]; [9]
  Conversion of guanosine under competition condition: 21.0%
[3]; [10]
  Conversion of guanosine under competition condition: 22.1%

## O=CC(=O)Cc1ccccc1 [drawing 91]
[3]; [8]
  Conversion of guanosine under competition condition: 21.8%
[3]; [9]
  Conversion of guanosine under competition condition: 9.6%
[3]; [10]
  Conversion of guanosine under competition condition: 8.4%

## CC(C(=O)C=O)N(C)C(=O)CN=[N+]=[N-] (stereo not drawn) [drawing 40]
[1]; pH = 7.8, S1:S2 = 1:1
  Conversion rate of guanosine: 40.2%
[1]; pH = 7.8, S1:S2 = 1:2
  Conversion rate of guanosine: 66.7%
[1]; pH = 7.8, S1:S2 = 1:3
  Conversion rate of guanosine: 74.9%
[1]; pH = 7.8, S1:S2 = 1:5
  Conversion rate of guanosine: 83.2%

## O=CC(=O)c1ccccc1 [drawing 73]
[2]; [11]
  Conversion of guanosine: 12.2%
[2]; [5]
  Conversion of guanosine: 10.7%
[2]; [6]
  Conversion of guanosine: 12.7%
[2]; [7]
  Conversion of guanosine: 28.3%

## CC(Br)C(=O)C=O (stereo not drawn) [drawing 36]
[1]; pH = 7.8, S1:S2 = 1:1
  Conversion rate of guanosine: 67.2%
[1]; pH = 7.8, S1:S2 = 1:2
  Conversion rate of guanosine: 89.9%
[1]; pH = 7.8, S1:S2 = 1:3
  Conversion rate of guanosine: 92.2%
[1]; [4]
  Conversion rate of guanosine: 35.8%

## CC(C)(OCCN=[N+]=[N-])C(=O)C=O [drawing 32]
[1]; pH = 7.8, S1:S2 = 1:1
  Conversion rate of guanosine: 81.6%
[1]; pH = 7.8, S1:S2 = 1:2
  Conversion rate of guanosine: 97.4%
[1]; [4]
  Conversion rate of guanosine: 51.3%

## CC(Br)C(=O)C=O (stereo not drawn) [drawing 51]
[1]; pH = 7.0, S1:S2 = 1:1
  Conversion rate of guanosine: 40.4%
[1]; pH = 7.0, S1:S2 = 1:2
  Conversion rate of guanosine: 81.2%
[1]; pH = 7.0, S1:S2 = 2:1
  Conversion rate of guanosine: 22.4%

## [N-]=[N+]=NCCOC(F)(F)C(=O)C=O [drawing 90]
[3]; pH = 10.1, 10 min, excess GTP added after 10 min
  Conversion of guanosine under competition condition: 51.2% (pH = 10.1)
[3]; pH = 10.1, 2 h, excess GTP competitor
  Conversion of guanosine under competition condition: 42.4% (pH = 10.1)
[3]; pH = 10.1, 24 h, excess GTP competitor
  Conversion of guanosine under competition condition: 22.2% (pH = 10.1)

## [N-]=[N+]=NCCOCCC(=O)C=O [drawing 87]
[3]; [8]
  Conversion of guanosine under competition condition: 41.3%
[3]; [9]
  Conversion of guanosine under competition condition: 12.6%
[3]; [10]
  Conversion of guanosine under competition condition: 11.2%

## CC(C)(OCCN=[N+]=[N-])C(=O)C=O [drawing 47]
[1]; pH = 7.0, S1:S2 = 1:1
  Conversion rate of guanosine: 46.7%
[1]; pH = 7.0, S1:S2 = 1:2
  Conversion rate of guanosine: 76.6%
[1]; pH = 7.0, S1:S2 = 2:1
  Conversion rate of guanosine: 23.6%

## CC(OC(=O)CN=[N+]=[N-])C(=O)C=O (stereo not drawn) [drawing 49]
[1]; pH = 7.0, S1:S2 = 1:1
  Conversion rate of guanosine: 50.1%
[1]; pH = 7.0, S1:S2 = 1:2
  Conversion rate of guanosine: 81.3%
[1]; pH = 7.0, S1:S2 = 2:1
  Conversion rate of guanosine: 29.5%

## CC(OCCN=[N+]=[N-])C(=O)C=O (stereo not drawn) [drawing 62]
[2]; [11]
  Conversion of guanosine: 79.8%
[2]; [5]
  Conversion of guanosine: 80.2%
[2]; [6]
  Conversion of guanosine: 81.8%
[2]; [7]
  Conversion of guanosine: 79.8%

## [N-]=[N+]=NCCOCC(=O)C=O [drawing 79]
[3]; [8]
  Conversion of guanosine under competition condition: 47.4%
[3]; [9]
  Conversion of guanosine under competition condition: 29.7%
[3]; [10]
  Conversion of guanosine under competition condition: 27.4%

## [N-]=[N+]=NCCOC(F)C(=O)C=O (stereo not drawn) [drawing 89]
[3]; [8]
  Conversion of guanosine under competition condition: 6.4%
[3]; [9]
  Conversion of guanosine under competition condition: 18.6%
[3]; [10]
  Conversion of guanosine under competition condition: 22.8%
